{
  "source": "patent US11447525B2",
  "about": "(NIIGATA UNIVERSITY, priority 2018, dated 2022)",
  "key": {"[1]": {"experiment": "Degradation test by human blood plasma, MALDI-TOFMS analysis", "type": "in vitro ADME", "details": "50% by mass human blood plasma; 120 min; read-out: degradation resistance (proportion of the peptide retained without degradation)", "method": "Specifically, a peptide composed of the amino acid sequence represented by SEQ ID NO: 1 (hereafter sometimes referred to as “PCPP11”) was added to human blood plasma having a concentration of 50% by mass, the mixture was sampled immediately after starting the degradation test (after 0 minutes), and then after 5 minutes, after 10 minutes, after 20 minutes, after 30 minutes, after 60 minutes and after 120 minutes, and the samples were analyzed by MALDI-TOFMS (Matrix Assisted Laser Desorption/Ionization-Time Of Flight Mass Spectrometry). In Table 2, “UK” is an abbreviation for “unknown”. Further, the No. shown for each peptide in Table 2 corresponds with the numerical value recorded on the peaks of the graphs shown in FIG. 1.\nEach of the peptides described above was added to human blood plasma having a concentration of 50% by mass, the resulting mixture was sampled immediately after starting the degradation test (after 0 minutes), and then after 5 minutes, after 10 minutes, after 20 minutes, after 30 minutes, after 60 minutes and after 120 minutes, and the samples were analyzed by MALDI-TOFMS. The results are shown in FIGS. 2 to 6 and Tables 4 to 6 shown below. Furthermore, the data for the degradation test by human blood plasma using PCPP11 from Reference Example 1 and the degradation tests by human blood plasma using each of the above peptides are collated in FIG. 7 and Table 7. The SEQ ID NO listed for the FAM-labeled peptide represents the SEQ ID NO of the peptide portion. Further, the No. shown for each peptide in Tables 4 to 6 corresponds with the numerical value recorded on the peaks of the graphs shown in FIGS. 2 to 6. In each table, in those cases where the numerical values are shown separated into an upper row and a lower row, the upper row value indicates the proportion (%) of peak area for two or more peptides relative to the total peak area in the MALDI-TOFMS analysis. On the other hand, the lower row value indicates the proportion (%) of each peptide when the peak area for the two or more peptides is deemed to be 100%. Moreover, for example, for the peptide No. 9 shown in Table 4, the left-side “70.0%” indicates the proportion (%) of the peptide No. 9 when the total peak area for the peptides No. 9 to 11 is deemed to be 100%, whereas the right-side “65%” indicates the proportion (%) of the peptide No. 9 relative to the total peak area in the MALDI-TOFMS analysis. This system is also used in the following tables."}, "[2]": {"system": "BxPC3 cells, PK-8 cells, AsPC1 cells and MIA-Paca2 cells (PDAC)", "experiment": "Accumulation of PCPP11 and partially deleted peptides in cells (Reference Example 3)", "type": "cell-based, human", "details": "for order of the strength of fluorescence in the pancreatic cancer cells: same method as Test Example 2; for fluorescence detected (absorbed fluorescence): same method as Test Example 2 (2 μM, 37° C., 2 hours)", "method": "Test were conducted confirming the accumulation of PCPP11 and partially deleted peptides thereof in BxPC3 cells, PK-8 cells, AsPC1 cells and MIA-Paca2 cells (all cell lines derived from human invasive pancreatic ductal adenocarcinoma (PDAC)) and in H2110 cells (lung adenocarcinoma cells). The peptides shown below in Table 10 were used.\nUsing the same method as Test Example 2, each peptide was added to each of the cells and then observed under a microscope. In FIG. 16, “full length” indicates the cells to which FAM-PCPP11 was added, “trunc-ver1” indicates cells to which a trunc-ver1-PCPP11 was added, “trunc-ver2” indicates cells to which a trunc-ver2-PCPP11 was added, and “trunc-ver3” indicates cells to which a trunc-ver3-PCPP11 was added."}, "[3]": {"system": "human pancreatic cancer growth and progression mouse model (subcutaneous and intraperitoneal human pancreatic cancer cell-transplanted)", "experiment": "Selective absorption into tissues of human pancreatic cancer growth and progression mouse model, fluorescence signal (Test Examples 3, 4, Reference Example 2)", "type": "in vivo, Balb/c nu/nu mouse", "details": "200 μg intravenously, 30 minutes after injection", "method": "Subsequently, 200 μg of each of the fluorescent labeled peptides prepared above in “1.” was injected intravenously into a human pancreatic cancer growth and progression mouse model (Balb/c nu/nu mouse, subcutaneous and intraperitoneal human pancreatic cancer cell-transplanted model). The pharmacokinetics of the peptide 30 minutes after the intravenous injection were then analyzed by tissue analysis of the freshly dissected specimen of the administered mouse, with the absorption quantified by detection of the fluorescence signal. […] In FIG. 9A, “sc tumor” is an abbreviation for “subcutaneous tumor”. In FIG. 9B, “abd tumor” is an abbreviation for “abdominal tumor”, indicating a tumor formed intraperitoneally. Further, “br” indicates the brain, “hr” indicates the heart, “kd” indicates the kidney, and “liv” indicates the liver. Furthermore, “liv. meta” is an abbreviation for “liver metastatic tumor”, and describes a tumor that has metastasized to the liver. Moreover, “panc” indicates the pancreas, and “sp” indicates the spleen. These same abbreviations are also used in subsequent figures. Furthermore, the term “untreated” in FIG. 9A indicates tissues resected from a mouse that was not administered with any fluorescent labeled peptide.\nSpecifically, first, either 27 μg or 200 μg of fluorescein was injected intravenously into a human pancreatic cancer growth and progression mouse model (Balb/c nu/nu mouse, subcutaneous and intraperitoneal human pancreatic cancer cell-transplanted model). The pharmacokinetics of the FLC 30 minutes after the intravenous injection were then analyzed by tissue analysis of the freshly dissected specimen of the administered mouse, with the absorption quantified by detection of the fluorescence signal."}, "[4]": {"system": "pancreatic cancer cells (BxPC3, PK-8, MIA-Paca2)", "experiment": "Accumulation of FAM-labeled peptides in cells, inverted fluorescence microscope (Test Example 2)", "type": "cell-based, human", "details": "2 μM, 37° C., 2 hours", "method": "(§1) Tests were conducted to confirm the accumulation of each peptide in each of the cells shown below in Table 8. Further, among the peptides shown below in Table 9, the FAM-PCPP11 used in Test Example 1, the LL peptide in which the N-terminus had been FAM-labeled (FAM-LL), and the Ld peptide in which the N-terminus had been FAM-labeled (FAM-Ld) were used.\n(§2) Each of FAM-PCPP11, FAM-LL and FAM-Ld was added to each of the cells shown in Table 8 in an amount sufficient to achieve a final concentration in the medium of 2 μM, and following cultivation of the cells at 37° C. for 2 hours, the sample was washed 3 times with a medium containing no peptide to remove any peptide within the medium. Subsequently, the incorporation of each of the peptides into each of the cells was evaluated visually using an inverted fluorescence microscope. Prior to the microscopic examination, the culture supernatant to which the peptide had been added was removed, and following washing three times with 1×PBS (−), a trypsin treatment was conducted to remove the adherent cells, and the resultant was immediately transferred into a new 96-well plate and once again suspended in fresh culture solution before the microscopic examination was performed. In FIG. 8A, “L” indicates the cells to which FAM-PCPP11 was added, “LL” indicates the cells to which FAM-LL was added, and “Ld” indicates the cells to which FAM-Ld was added. Further, the fluorescent images in the BxPC3 cells indicate a representative example of pancreatic cancer cells.\n(§3) Furthermore, FIG. 8B is a graph quantifying the fluorescence detected in each of the above cells in FIG. 8A, with the fluorescence intensity detected in each cell shown relative to a value of 1.0 for the fluorescence detected in the H2110 cells, which is a cell line derived from an adenocarcinoma in a human non-small-cell lung cancer system, to which each of the FAM-PCPP11 and FAM-LL peptides had been added.\nFurther, each of FAM-PCPP11, FAM-LL and FAM-NmLL was added to each of the cells shown in Table 8 in an amount sufficient to achieve a final concentration in the medium of 2 μM, and following cultivation of the cells at 37° C. for 2 hours, the sample was washed 3 times with a medium containing no peptide to remove any peptide within the medium. Subsequently, the incorporation of each of the peptides into each of the cells was evaluated visually using an inverted fluorescence microscope. […]"}, "[5]": {"system": "stomach cancer cells (SCH)", "experiment": "Accumulation of FAM-labeled peptides in cells, inverted fluorescence microscope (Test Example 2)", "type": "cell-based, human", "details": "2 μM, 37° C., 2 hours", "method": "as §1, §2, §3"}, "[6]": {"system": "pancreatic cancer cells (BxPC3, PK-8, MIA-Paca2, AsPC1, PL45, Panc-1)", "experiment": "Accumulation of various peptides in pancreatic cancer cells (Test Example 5)", "type": "cell-based, human", "details": "2 μM, 37° C., 2 hours", "method": "Test were conducted to confirm the accumulation of various peptides in each of the cells shown below in Table 11. Further, the peptides shown below in Table 12 were used.\nEach peptide was added to each of the cells shown in Table 11 in an amount sufficient to achieve a final concentration in the medium of 2 μM, and following cultivation of the cells at 37° C. for 2 hours, the sample was washed 3 times with a medium containing no peptide to remove any peptide within the medium. Subsequently, the incorporation of each of the peptides into each of the cells was evaluated visually using an inverted fluorescence microscope. Prior to the microscopic examination, the culture supernatant to which the peptide had been added was removed, and following washing three times with 1×PBS (−), a trypsin treatment was conducted to remove the adherent cells, and the resultant was immediately transferred into a new 96-well plate and once again suspended in fresh culture solution before the microscopic examination was performed. In FIG. 17, “L” indicates the cells to which FAM-PCPP11 was added, “d” indicates the cells to which FAM-d was added, “LL” indicates the cells to which FAM-LL was added, “LL2” indicates the cells to which FAM-LL2 was added, and “dd” indicates the cells to which FAM-dd was added."}},
  "note": "Non-standard residues stand in square brackets, D forms with d. Residues, ends and D or L forms follow the SMILES beside them. *: point of attachment. 5FAM = O=C1OC2(c3ccc(O)cc3Oc3cc(O)ccc32)c2ccc(C(=O)*)cc21",
  "data": [
    {"smiles": "C[C@@H](O)[C@H](NC(=O)[C@@H](NC(=O)[C@@H]1CCCN1C(=O)[C@H](CCCNC(=N)N)NC(=O)[C@H](CCCNC(=N)N)NC(=O)c1ccc2c(c1)C(=O)OC21c2ccc(O)cc2Oc2cc(O)ccc21)[C@@H](C)O)C(=O)N[C@@H](Cc1c[nH]c2ccccc12)C(=O)N[C@@H](Cc1c[nH]cn1)C(=O)N[C@@H](CCCCN)C(=O)N1CCC[C@H]1C(=O)O", "note": "[No. 13, reference compound] (5FAM-RRPTTWHKP-OH; C-terminus assumed)", "values": [
      {"measurement": "remaining at 2 h", "setting": "[1]", "result": 29, "unit": "%"},
      {"measurement": "order of the strength of fluorescence in the pancreatic cancer cells", "setting": "[2]", "result": "full-length≥trunc-ver3>trunc-ver1>>trunc-ver2"}
    ]},
    {"smiles": "C[C@H](O)[C@@H](NC(=O)[C@@H](Cc1c[nH]c2ccccc12)NC(=O)[C@@H](Cc1c[nH]cn1)NC(=O)[C@@H](CCCCN)NC(=O)[C@H]1CCCN1C(=O)CNC(=O)[C@@H]1CCCN1C(=O)[C@H](CCCCN)NC(=O)[C@H](Cc1c[nH]cn1)NC(=O)[C@H](Cc1c[nH]c2ccccc12)NC(=O)[C@@H](NC(=O)[C@@H](NC(=O)[C@@H]1CCCN1C(=O)[C@H](CCCNC(=N)N)NC(=O)[C@H](CCCNC(=N)N)NC(=O)c1ccc2c(c1)C(=O)OC21c2ccc(O)cc2Oc2cc(O)ccc21)[C@@H](C)O)[C@@H](C)O)C(=O)N[C@@H](C(=O)N1CCC[C@@H]1C(=O)N[C@H](CCCNC(=N)N)C(=O)N[C@H](CCCNC(=N)N)C(=O)O)[C@H](C)O", "note": "[FAM-Ld] (5FAM-RRPTTWHKPG[dP][dK][dH][dW][dT][dT][dP][dR][dR]-OH; C-terminus assumed)", "values": [
      {"measurement": "inhibitory performance on nonspecific absorption into untargeted normal organs", "setting": "[3]", "result": "satisfactorily maintained"},
      {"measurement": "nonspecific absorption compared with conventional PCPP11", "setting": "[3]; FIG. 10A to 10D", "result": "inhibited even more effectively"},
      {"measurement": "absorption into pancreatic malignant tumors compared with the conventional PCPP11", "setting": "[3]; FIG. 11", "result": "approximately 4 fold"},
      {"measurement": "fluorescence compared with the sample containing FAM-PCPP11", "setting": "[4]", "result": "stronger fluorescence"},
      {"measurement": "fluorescence compared with the sample containing FAM-PCPP11", "setting": "[5]", "result": "stronger fluorescence"}
    ]},
    {"smiles": "C[C@@H](O)[C@H](NC(=O)c1ccc2c(c1)C(=O)OC21c2ccc(O)cc2Oc2cc(O)ccc21)C(=O)N[C@H](C(=O)N[C@@H](Cc1c[nH]c2ccccc12)C(=O)N[C@@H](Cc1c[nH]cn1)C(=O)N[C@@H](CCCCN)C(=O)N1CCC[C@H]1C(=O)O)[C@@H](C)O", "note": "[FAM-trunc-ver2-PCPP11, [FAM]-TTWHKP] (5FAM-TTWHKP-OH; C-terminus assumed)", "values": [
      {"measurement": "order of the strength of fluorescence in the pancreatic cancer cells", "setting": "[2]", "result": "full-length≥trunc-ver3>trunc-ver1>>trunc-ver2"},
      {"measurement": "fluorescence detected (absorbed fluorescence)", "setting": "[2]", "result": "marked reduction in absorbed fluorescence"}
    ]},
    {"smiles": "C[C@@H](O)[C@H](NC(=O)[C@@H](NC(=O)[C@@H]1CCCN1C(=O)c1ccc2c(c1)C(=O)OC21c2ccc(O)cc2Oc2cc(O)ccc21)[C@@H](C)O)C(=O)N[C@@H](Cc1c[nH]c2ccccc12)C(=O)N[C@@H](Cc1c[nH]cn1)C(=O)O", "note": "[FAM-trunc-ver5-PCPP11, [FAM]-PTTWH] (5FAM-PTTWH-OH; C-terminus assumed)", "values": [
      {"measurement": "fluorescence detected (absorbed fluorescence)", "setting": "[2]", "result": "almost no fluorescence was observed"}
    ]},
    {"smiles": "C[C@@H](O)[C@H](NC(=O)[C@@H](NC(=O)[C@@H]1CCCN1C(=O)[C@H](CCCNC(=N)N)NC(=O)[C@H](CCCNC(=N)N)NC(=O)CNC(=O)[C@@H]1CCCN1C(=O)CNC(=O)[C@@H]1CCCN1C(=O)[C@H](CCCCN)NC(=O)[C@H](Cc1c[nH]cn1)NC(=O)[C@H](Cc1c[nH]c2ccccc12)NC(=O)[C@@H](NC(=O)[C@@H](NC(=O)[C@@H]1CCCN1C(=O)[C@H](CCCNC(=N)N)NC(=O)[C@H](CCCNC(=N)N)NC(=O)c1ccc2c(c1)C(=O)OC21c2ccc(O)cc2Oc2cc(O)ccc21)[C@@H](C)O)[C@@H](C)O)[C@@H](C)O)C(=O)N[C@@H](Cc1c[nH]c2ccccc12)C(=O)N[C@@H](Cc1c[nH]cn1)C(=O)N[C@@H](CCCCN)C(=O)N1CCC[C@H]1C(=O)O", "note": "[FAM-LL2] (5FAM-RRPTTWHKPGPGRRPTTWHKP-OH; C-terminus assumed)", "values": [
      {"measurement": "fluorescence compared with the other peptides", "setting": "[6]", "result": "stronger fluorescence"}
    ]}
  ]
}
